For eight compounds, TGI results are on record in PubChem BioAssay (NCI).

Each structure is given as a SMILES string.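 Assay format: 96-well plates, 48-hour exposure. TGI denotes the concentration required for complete inhibition of growth.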

Test systems include HCC-2998 colon; SF-295 CNS; HCT-15 colon; RPMI-8226 leukemia; HOP-92 NSCLC; OVCAR-3 ovarian; RXF 393 renal; HT29 colon; SK-OV-3 ovarian; HL-60(TB) leukemia; SW-620 colon; LOX IMVI melanoma; SK-MEL-28 melanoma; TK-10 renal; OVCAR-8 ovarian; SK-MEL-2 melanoma; MDA-MB-435; NCI/ADR-RES ovarian; MDA-MB-231 breast.
Experiment in all cases: growth of human tumour cells (NCI), 48 h

Regarding `NC(=O)/C(=N\NC(=O)C[n+]1ccccc1)C1NC(=O)NC1=O` (configuration not stated), the TGI in the test on HCC-2998 colon, in the test on SF-295 CNS, in the test on HCT-15 colon, in the test with RPMI-8226 leukemia, in the test on HOP-92 NSCLC and in the test on OVCAR-3 ovarian was more than 100 µM each time. Moreover, the TGI in the test on RXF 393 renal, with HT29 colon, in the test with SK-OV-3 ovarian, in the test with HL-60(TB) leukemia, in the test with SW-620 colon and in the test on LOX IMVI melanoma was more than 100 µM in each case. The TGI with SK-MEL-28 melanoma, in the test with TK-10 renal, in the test with OVCAR-8 ovarian and in the test on SK-MEL-2 melanoma was more than 100 µM in each case.
For `CCOC(=O)C(C(=O)OCC)c1ccc([N+](=O)[O-])o1`, the TGI in the test with HCC-2998 colon was determined as 31.3 µM; in the test with SF-295 CNS it was 36.8 µM; in the test on HCT-15 colon, 33.6 µM; in the test on RPMI-8226 leukemia it was 23.6 µM; in the test on HOP-92 NSCLC, 15 µM; in the test on OVCAR-3 ovarian, 15.8 µM. Also, the TGI in the test on RXF 393 renal is 24.9 µM; with HT29 colon it was 31.2 µM; with SK-OV-3 ovarian, more than 100 µM; in the test on HL-60(TB) leukemia, more than 22.3 µM; in the test with SW-620 colon, 9.94 µM; in the test on LOX IMVI melanoma, 9.41 µM. For the same compound, the TGI with SK-MEL-28 melanoma was found to be 27.1 µM; in the test with TK-10 renal, 30.8 µM; in the test on OVCAR-8 ovarian it was 16.1 µM; with SK-MEL-2 melanoma, 34.1 µM.
Consider `CC(C)(C)OC(=O)NC(Cc1ccc(O)cn1)C(=O)O` (configuration not stated), for which the TGI in the test with HCC-2998 colon, with SF-295 CNS, in the test with HCT-15 colon, in the test with RPMI-8226 leukemia, in the test on HOP-92 NSCLC and with OVCAR-3 ovarian was more than 100 µM each time. Besides, the TGI with RXF 393 renal, in the test with HT29 colon, in the test with MDA-MB-435, in the test with HL-60(TB) leukemia, with SW-620 colon and in the test on LOX IMVI melanoma was more than 100 µM in each case. Moreover, the TGI in the test on NCI/ADR-RES ovarian, with MDA-MB-231 breast, with SK-MEL-28 melanoma, in the test with TK-10 renal and with OVCAR-8 ovarian was more than 100 µM throughout.
Regarding `C=CCN1COc2c(cc3c4c(cccc24)C(=O)O3)C1`, the TGI in the test on HCC-2998 colon was more than 100 µM; with SF-295 CNS, more than 100 µM; in the test on HCT-15 colon, 50 µM; in the test with RPMI-8226 leukemia, 97.1 µM; in the test on HOP-92 NSCLC it was 30.5 µM; in the test on OVCAR-3 ovarian it was 72.5 µM. The TGI in the test on RXF 393 renal is more than 10 µM; in the test on HT29 colon, 51.8 µM; in the test with SK-OV-3 ovarian, more than 100 µM; with HL-60(TB) leukemia it was 50.3 µM; with SW-620 colon, 62.7 µM; in the test on LOX IMVI melanoma, more than 10 µM. Besides, the TGI is 57.2 µM with SK-MEL-28 melanoma, 39 µM in the test on TK-10 renal, more than 100 µM in the test on OVCAR-8 ovarian and more than 100 µM in the test on SK-MEL-2 melanoma.
On to `CCCCC(C(=O)CCC(=O)Nc1ccc(Cl)c(Cl)c1)C(=O)C(C)C` (configuration not stated), for which the TGI in the test on HCC-2998 colon, in the test with SF-295 CNS, with HCT-15 colon, in the test on RPMI-8226 leukemia, in the test with HOP-92 NSCLC and with OVCAR-3 ovarian was more than 100 µM throughout. The TGI in the test on RXF 393 renal, in the test on HT29 colon, in the test on SK-OV-3 ovarian, in the test with HL-60(TB) leukemia, in the test with SW-620 colon and in the test on LOX IMVI melanoma was more than 100 µM in each case. Also, the TGI in the test with SK-MEL-28 melanoma, in the test on TK-10 renal, in the test with OVCAR-8 ovarian and in the test with SK-MEL-2 melanoma was more than 100 µM each time.
`O=C(CCCN1CCC(Nc2ccccc2)(c2nnnn2C2CCCCC2)CC1)c1ccc(F)cc1`: the TGI with HCC-2998 colon was 32.1 µM; in the test on SF-295 CNS, 41.8 µM; in the test with HCT-15 colon, more than 100 µM; in the test with RPMI-8226 leukemia, 25.1 µM; in the test with OVCAR-3 ovarian, 24 µM; in the test with RXF 393 renal, 22.4 µM. Moreover, the TGI with HT29 colon was 14.6 µM; in the test with SK-OV-3 ovarian, 26.1 µM; with MDA-MB-435, 19.4 µM; in the test on HL-60(TB) leukemia, 29.6 µM; with SW-620 colon, more than 100 µM; in the test with LOX IMVI melanoma it was more than 100 µM. Besides, the TGI in the test on NCI/ADR-RES ovarian was more than 100 µM; in the test with MDA-MB-231 breast it was 24.2 µM; in the test on SK-MEL-28 melanoma it was 12.3 µM; with TK-10 renal, 26.1 µM; in the test with OVCAR-8 ovarian, 68.3 µM; with SK-MEL-2 melanoma, 23.7 µM.
Turning to `O=C1C=CC2(C=C1)CCNC1=C2C(=O)c2ccccc2C1=O`, the TGI with HCC-2998 colon was more than 100 µM; with SF-295 CNS, more than 100 µM; in the test with HCT-15 colon it was more than 100 µM; in the test on RPMI-8226 leukemia, more than 100 µM; in the test on HOP-92 NSCLC, more than 100 µM; in the test with OVCAR-3 ovarian, 76.7 µM. Also, the TGI in the test on RXF 393 renal, with HT29 colon, in the test with SK-OV-3 ovarian, in the test on HL-60(TB) leukemia, in the test with SW-620 colon and with LOX IMVI melanoma was more than 100 µM throughout. In addition, the TGI in the test with SK-MEL-28 melanoma, in the test on TK-10 renal, in the test on OVCAR-8 ovarian and in the test with SK-MEL-2 melanoma was more than 100 µM in each case.
Turning to `COc1ccc(-c2c3c(n(C4OC(COC(C)=O)C(OC(C)=O)C(OC(C)=O)C4OC(C)=O)c(=S)c2C#N)CCC3)cc1` (configuration not stated), the TGI is more than 100 µM in the test with HCC-2998 colon; more than 100 µM in the test on SF-295 CNS; more than 100 µM in the test on HCT-15 colon; more than 100 µM with RPMI-8226 leukemia; 49.3 µM in the test on HOP-92 NSCLC; more than 100 µM in the test on OVCAR-3 ovarian. Moreover, the TGI with RXF 393 renal, in the test with HT29 colon, with SK-OV-3 ovarian, in the test with MDA-MB-435, in the test on HL-60(TB) leukemia and with SW-620 colon was more than 100 µM in each case. Also, the TGI in the test on LOX IMVI melanoma, in the test with NCI/ADR-RES ovarian, in the test with SK-MEL-28 melanoma, in the test on TK-10 renal and in the test on SK-MEL-2 melanoma was more than 100 µM throughout.
